# Laboratory results reported in PMC6476928 (Frontiers in Pharmacology, 2019).
# Legend:
# [1] = system: action potential of NRVMs; assay: Action potential recording in neonatal rat ventricular myocytes; assay type: cell-based; conditions: 100 nM JZTX-V
# Description: Neonatal rat ventricular myocytes cells were obtained from ventricles of neonatal Sprague–Dawley rats as previously reported ([Sung et al., 2012]; [Yan et al., 2018]). SD rats (Hunan SJA Laboratory Animal Co., Ltd., Changsha, China) were used according to the guidelines of the National Institutes of Health for Care and Use of Laboratory Animals. The experiments were approved by the Animal Care and Use Committee of Hunan Normal University.
# The APs, Pipette solution contained (mM) 120 KCl, 1 MgCl2, 10 EGTA, 10 Hepes, and 3 MgATP (pH = 7.4). The extracellular buffer contained (mM) 140 NaCl, 5.4 KCl, 1.3 CaCl2, 0.5 MgCl2, 5 Hepes, and 5.5 glucose (pH = 7.4).
# All data points are shown as mean SEM.
# [2] = system: kv2.1; conditions: 5µM, X. laevis oocytes; cited from earlier work
# Description: Supplement Data_Sheet_1.docx, table 1: Supplementary Table 1.Activity of spider toxins on Kv2 and Kv4 channel subtypes Activities of spider toxins against different subtypes of Kv2 and Kv4 potassium channels are reported as IC50 (nanomolar) or as percentage of current inhibition at a single dose (nanomolar). Affinity (IC50) measurements | column: kv2.1 || Animal toxins target ion channels, and are thus valuable resources with potential therapeutic applications. The Kv4 subfamily from scorpion ([Maffie et al., 2013]; [Xie et al., 2014]) and spider venom ([Escoubas et al., 2002]; [Ebbinghaus et al., 2004]; [Yuan et al., 2007], [2012]; [DeSimone et al., 2009]) has a rich toxin pharmacology. HaTx, originally isolated from venom of the Chilean rose tarantula (Grammostola spatulata), inhibits Kv4.2 channels effectively, with similar affinity for Kv2.1 ([Swartz and MacKinnon, 1995]; [Swartz, 2007]). Other Kv4 channel inhibitors, Stromatoxin (ScTx1) fr ...
# [3] = system: kv4.1; conditions: 5µM, X. laevis oocytes; cited from earlier work
# Description: Supplement Data_Sheet_1.docx, table 1: Supplementary Table 1.Activity of spider toxins on Kv2 and Kv4 channel subtypes Activities of spider toxins against different subtypes of Kv2 and Kv4 potassium channels are reported as IC50 (nanomolar) or as percentage of current inhibition at a single dose (nanomolar). Affinity (IC50) measurements | column: kv4.1
# [4] = target: T1, Kv4.2 (Homo sapiens, UniProt Q9NZV8); assay: Whole-cell patch clamp of WT Kv4.2 co-expressed with KChIP2 in HEK293T cells; assay type: cell-based; design: expressed in transfected cells; host or cells: HEK293T
# T1 sequence (Q9NZV8 1-630): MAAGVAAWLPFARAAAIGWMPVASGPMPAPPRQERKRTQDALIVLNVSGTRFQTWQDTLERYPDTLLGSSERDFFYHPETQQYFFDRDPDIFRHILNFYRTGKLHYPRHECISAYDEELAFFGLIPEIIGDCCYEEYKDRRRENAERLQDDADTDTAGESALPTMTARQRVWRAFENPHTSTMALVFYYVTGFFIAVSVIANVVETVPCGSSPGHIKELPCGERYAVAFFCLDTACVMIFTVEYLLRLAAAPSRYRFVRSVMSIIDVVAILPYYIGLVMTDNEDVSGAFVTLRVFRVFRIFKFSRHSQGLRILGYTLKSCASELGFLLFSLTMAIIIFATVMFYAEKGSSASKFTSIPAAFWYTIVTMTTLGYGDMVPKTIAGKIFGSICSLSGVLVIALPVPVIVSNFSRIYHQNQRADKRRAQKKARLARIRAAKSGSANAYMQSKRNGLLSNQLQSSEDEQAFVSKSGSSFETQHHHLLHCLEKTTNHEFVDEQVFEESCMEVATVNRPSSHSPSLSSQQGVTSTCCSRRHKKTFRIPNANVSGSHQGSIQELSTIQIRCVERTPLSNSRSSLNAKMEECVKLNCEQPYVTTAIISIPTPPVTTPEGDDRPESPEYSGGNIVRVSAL
# T1 sequence (Q9NS61 1-270 partner): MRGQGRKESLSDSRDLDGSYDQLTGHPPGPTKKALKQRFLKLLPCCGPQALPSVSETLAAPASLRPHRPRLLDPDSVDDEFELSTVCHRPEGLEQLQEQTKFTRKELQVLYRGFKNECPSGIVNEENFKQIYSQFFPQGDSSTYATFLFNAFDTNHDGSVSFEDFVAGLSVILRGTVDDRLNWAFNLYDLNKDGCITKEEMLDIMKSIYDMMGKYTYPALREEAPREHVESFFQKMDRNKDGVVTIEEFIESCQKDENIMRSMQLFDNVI
# Description: Human embryonic kidney cell line (HEK293T) was obtained from Shanghai Institute of Cell Biology, Chinese Academy of Sciences (Shanghai, China) and maintained with 5% CO2 at 37°C in DMEM supplemented with 10% heat-inactivated fetal calf and serum (FBS), penicillin (100 U/ml), and streptomycin (100 μg/ml). The WT/mutant Kv4.2 plasmids were transiently transfected into HEK293T by Lipofectamine^TM 2000 Reagent (Invitrogen), and the KChIP2 subunits were co-transfected with Kv4.2.
# The extracellular buffer and pipette solution for AP, Ito, and Kv4.2 were used as follows.
# Kv4.2 current, The pipette solution contained (mM) 140 KF, 5 ATP-2Na, 1 EGTA, and 10 HEPEs (pH = 7.4). […] The Kv4.2 currents were elicited by a 300-ms depolarizing voltage of 10 mV from a holding potential of −80 mV. The steady-state activation of Kv4.2 was measured with the holding potential −80 mV and applied from −80 mV to 70 mV (10-mV increments). Steady-state inactivation of Kv4.2 channel measured with a series of a 300-ms depolarizing test potential of 10 mV followed a 1000-ms prepulse at potentials ranging from −120 to +70 mV with a 5-mV increment.
# Data were analyzed using the clampfit (Axon) and Origin 9 software programs. All data points are shown as mean SEM. The significance was estimated using unpaired two-tailed t-tests, and a P < 0.05 was considered statistically significant. n stands for the number of the separate experimental cells. […] The steady-state activation relationship was measured using Boltzmann function (f(V) = 1/{1 + exp[−(V−V1/2)/k]}^4). Steady-state inactivation was measured using the Boltzmann function f(V) = 1/{1 + exp[−(V − V1/2)/k]}.
smiles,measurement,setting,value
"CC[C@H](C)[C@H](NC(=O)[C@@H](NC(=O)[C@H](CCCCN)NC(=O)[C@H](CCCNC(=N)N)NC(=O)[C@@H]1CSSC[C@@H]2NC(=O)[C@H](C)NC(=O)[C@H](CCCNC(=N)N)NC(=O)[C@H](CCCCN)NC(=O)[C@H](CO)NC(=O)[C@H](CC(=O)O)NC(=O)[C@@H]3CSSC[C@H](NC(=O)[C@H](CCCNC(=N)N)NC(=O)[C@H](CC(C)C)NC(=O)CNC(=O)[C@H](CCC(=O)O)NC(=O)[C@H](CSSC[C@H](NC(=O)[C@@H](N)Cc4ccc(O)cc4)C(=O)N[C@@H](CCC(N)=O)C(=O)N[C@@H](CCCCN)C(=O)N[C@@H](Cc4c[nH]c5ccccc45)C(=O)N[C@@H](CCSC)C(=O)N[C@@H](Cc4c[nH]c5ccccc45)C(=O)N[C@@H]([C@@H](C)O)C(=O)N3)NC2=O)C(=O)N[C@@H](CCCCN)C(=O)N[C@@H](CC(C)C)C(=O)N[C@@H](Cc2c[nH]c3ccccc23)C(=O)N1)[C@@H](C)CC)C(=O)O [JZTX-V, Jingzhaotoxin-V]",APD10 compared with vehicle-treated group,"[1]; 1 Hz, N = 5",123.53 ± 4.23%
same,APD50 compared with vehicle-treated group,"[1]; 1 Hz, N = 5",124.34 ± 3.17%
same,APD90 compared with vehicle-treated group,"[1]; 1 Hz, N = 5",126.26 ± 3.23%
same,effect on APD10–50,[1]; N = 5,did not affect
same,effect on APD50–90,[1]; N = 5,did not affect
same,APD10 after treatment,[1]; control 12 ± 1 ms,15 ± 1.7 ms
same,APD50 after treatment,[1]; control 88 ± 6 ms,109 ± 8 ms
same,APD90 after treatment,[1]; control 245 ± 7 ms,309 ± 10 ms
same,percentage of current inhibition kv2.1,[2],35% (5µM) O
same,percentage of current inhibition kv4.1,[3],25% (5µM) O
same,inhibition at 0.1 µM,"[4]; HEK-293T, read-out: inhibition of Kv4.2 potassium current",> 90%
same,V1/2 of steady-state activation (G–V curve),"[4]; in presence of 10 nM JZTX-V, +20 mV in absence",+30 mV
same,half-maximal inactivation potential (Vin1/2),"[4]; in presence of 10 nM JZTX-V, −44.5 mV without",−50.0 mV
